From patent US9738634B2, “Heterocyclic amide compound and herbicide” (SYNGENTA PARTICIPATIONS AG, priority 2013, dated 2017)

Assays:
Type in all cases: in vivo
oval-leafed pondweed [1] = test: Test Example 2: weedkilling efficacy, growth period weed treatment in the submerged state; C: oval-leafed pondweed
Procedure: (§1) Weedkilling efficacy test on growth period weed treatment in the submerged state
(§2) Alluvial soil was introduced into 1/10,000 Are Wagner pots, and 4 cm depth submerged conditions were created by addition of water and mixing. Seeds of barnyard grass, bulrush and oval-leafed pondweed were mixed and sown into the aforesaid cups, and the plants were grown by placing in a greenhouse at 25 to 30° C. When the barnyard grass, bulrush and oval-leafed pondweed had reached the 1-2 leaf stage, emulsions of compounds of the present invention prepared according to compounding example 2 were diluted with water to give the specified dosages and applied onto the water surface. 3 weeks after the pesticide treatment the effect on each type of plant was investigated on the basis of the assessment criteria of test example 1.
(§3) A: barnyard grass, B: bulrush, C: oval-leafed pondweed, D: crabgrass, E: green foxtail, F: barnyard grass, G: wild oat, H: black-grass, I: Italian ryegrass, J: common wind-grass, K: Indian mallow, L: redroot pigweed, M: fig-leafed goosefoot, N: chickweed, O: catchweed, p: birds-eye speedwell, a: transplanted rice, b: directly sown rice, c: corn, d: soybean, e: wheat, f: beet, g: rapeseed
(§4) Further, pesticide dosage (g/ha) indicates the concentration regulated such that treatment was with only the stated number of grams (g), when calculated per hectare (ha).

transplanted rice = test: Test Example 1: preemergent weed treatment in the submerged state, effect on crop; a: transplanted rice
Source text: (§5) Weedkilling efficacy test on preemergent weed treatment in the submerged state
(§6) Alluvial soil was introduced into 1/10,000 Are Wagner pots, and 4 cm depth submerged conditions were created by addition of water and mixing. Seeds of barnyard grass, bulrush and oval-leafed pondweed were mixed and sown into the aforesaid cups, then 2.5 leaf stage rice seedlings were transplanted. On the sowing day, emulsions of compounds of the present invention prepared according to compounding example 2 were diluted with water to give the specified dosages and applied onto the water surface. The plants were grown after placing the cups in a greenhouse at 25 to 30° C. 3 weeks after the pesticide treatment the effect on each type of plant was investigated on the basis of the following assessment criteria.
as §3, §4

bulrush [2] = test: Test Example 1: weedkilling efficacy, preemergent weed treatment in the submerged state; B: bulrush
Source text: as §5, §6, §3, §4

barnyard grass [3] = test: Test Example 1: weedkilling efficacy, preemergent weed treatment in the submerged state; A: barnyard grass
Source text: as §5, §6, §3, §4

bulrush [4] = test: Test Example 2: weedkilling efficacy, growth period weed treatment in the submerged state; B: bulrush
Procedure: as §1, §2, §3, §4

oval-leafed pondweed [5] = test: Test Example 1: weedkilling efficacy, preemergent weed treatment in the submerged state; C: oval-leafed pondweed
Source text: as §5, §6, §3, §4

barnyard grass [6] = test: Test Example 2: weedkilling efficacy, growth period weed treatment in the submerged state; A: barnyard grass
Procedure: as §1, §2, §3, §4

SMILES | C (oval-leafed pondweed) weedkilling efficacy grade (oval-leafed pondweed [1]; treatment dosage 252 g/ha) | a: transplanted rice, effect on crop grade (transplanted rice; treatment dosage 252 g/ha) | B: bulrush, weed kill grade (bulrush [2]; treatment dosage 252 g/ha) | A: barnyard grass, weed kill grade (barnyard grass [3]; treatment dosage 252 g/ha) | B (bulrush) weedkilling efficacy grade (bulrush [4]; treatment dosage 252 g/ha) | C: oval-leafed pondweed, weed kill grade (oval-leafed pondweed [5]; treatment dosage 252 g/ha) | A (barnyard grass) weedkilling efficacy grade (barnyard grass [6]; treatment dosage 252 g/ha) | also measured
CC(C)(C(=O)Nc1cc(C2CC2)ccn1)N1COCN(c2ccccc2)C1=O [A-2-45] | 3 (weed kill ratio 40% or more, less than 70%) | 0 (weed kill ratio 5% or less (practically no effect)) | 5 (weed kill ratio 90% or more, (practically complete withering)) | 5 (weed kill ratio 90% or more, (practically complete withering)) | 4 (weed kill ratio 70% or more, less than 90%) | 5 (weed kill ratio 90% or more, (practically complete withering)) | 4 (weed kill ratio 70% or more, less than 90%) | –
CC(C)(C(=O)Nc1cccc(C2CC2)n1)N1COCN(c2ccccc2)C1=O [A-2-46] | 0 (weed kill ratio 5% or less (practically no effect)) | 1 (weed kill ratio 5% or more, less than 20%) | 4 (weed kill ratio 70% or more, less than 90%) | 5 (weed kill ratio 90% or more, (practically complete withering)) | 2 (weed kill ratio 20% or more, less than 40%) | 3 (weed kill ratio 40% or more, less than 70%) | 4 (weed kill ratio 70% or more, less than 90%) | –
CC(C)(C(=O)Nc1cc(C#N)ccn1)N1COCN(c2ccccc2)C1=O [A-2-48] | 5 (weed kill ratio 90% or more, (practically complete withering)) | 0 (weed kill ratio 5% or less (practically no effect)) | 5 (weed kill ratio 90% or more, (practically complete withering)) | 5 (weed kill ratio 90% or more, (practically complete withering)) | 5 (weed kill ratio 90% or more, (practically complete withering)) | 5 (weed kill ratio 90% or more, (practically complete withering)) | 4 (weed kill ratio 70% or more, less than 90%) | –
CC(C)(C(=O)Nc1cc(-c2ccccc2)ccn1)N1COCN(c2ccccc2)C1=O [A-2-49] | 4 (weed kill ratio 70% or more, less than 90%) | 1 (weed kill ratio 5% or more, less than 20%) | 5 (weed kill ratio 90% or more, (practically complete withering)) | 5 (weed kill ratio 90% or more, (practically complete withering)) | 4 (weed kill ratio 70% or more, less than 90%) | 5 (weed kill ratio 90% or more, (practically complete withering)) | 4 (weed kill ratio 70% or more, less than 90%) | –
CC(C)(C(=O)Nc1cccc(-c2ccccc2)n1)N1COCN(c2ccccc2)C1=O [A-2-50] | 3 (weed kill ratio 40% or more, less than 70%) | 0 (weed kill ratio 5% or less (practically no effect)) | 5 (weed kill ratio 90% or more, (practically complete withering)) | 5 (weed kill ratio 90% or more, (practically complete withering)) | 4 (weed kill ratio 70% or more, less than 90%) | 5 (weed kill ratio 90% or more, (practically complete withering)) | 4 (weed kill ratio 70% or more, less than 90%) | –
COc1cccc(NC(=O)C(C)(C)N2COCN(c3ccccc3)C2=O)n1 [A-2-52] | 2 (weed kill ratio 20% or more, less than 40%) | 1 (weed kill ratio 5% or more, less than 20%) | 5 (weed kill ratio 90% or more, (practically complete withering)) | 5 (weed kill ratio 90% or more, (practically complete withering)) | 5 (weed kill ratio 90% or more, (practically complete withering)) | 5 (weed kill ratio 90% or more, (practically complete withering)) | 4 (weed kill ratio 70% or more, less than 90%) | –
CC(C)(C(=O)Nc1cc(OC(F)F)ccn1)N1COCN(c2ccccc2)C1=O [A-2-53] | – | – | – | – | – | – | – | C (oval-leafed pondweed) weedkilling efficacy grade (oval-leafed pondweed [1]; treatment dosage 320 g/ha): 5 (weed kill ratio 90% or more, (practically complete withering)); a: transplanted rice, effect on crop grade (transplanted rice; treatment dosage 320 g/ha): 1 (weed kill ratio 5% or more, less than 20%); B: bulrush, weed kill grade (bulrush [2]; treatment dosage 320 g/ha): 5 (weed kill ratio 90% or more, (practically complete withering)); A: barnyard grass, weed kill grade (barnyard grass [3]; treatment dosage 320 g/ha): 5 (weed kill ratio 90% or more, (practically complete withering)); B (bulrush) weedkilling efficacy grade (bulrush [4]; treatment dosage 320 g/ha): 5 (weed kill ratio 90% or more, (practically complete withering)); C: oval-leafed pondweed, weed kill grade (oval-leafed pondweed [5]; treatment dosage 320 g/ha): 5 (weed kill ratio 90% or more, (practically complete withering)); A (barnyard grass) weedkilling efficacy grade (barnyard grass [6]; treatment dosage 320 g/ha): 5 (weed kill ratio 90% or more, (practically complete withering))
CC(C)(C(=O)Nc1cccc(OC(F)F)n1)N1COCN(c2ccccc2)C1=O [A-2-54] | – | – | – | – | – | – | – | C (oval-leafed pondweed) weedkilling efficacy grade (oval-leafed pondweed [1]; treatment dosage 320 g/ha): 3 (weed kill ratio 40% or more, less than 70%); a: transplanted rice, effect on crop grade (transplanted rice; treatment dosage 320 g/ha): 1 (weed kill ratio 5% or more, less than 20%); B: bulrush, weed kill grade (bulrush [2]; treatment dosage 320 g/ha): 5 (weed kill ratio 90% or more, (practically complete withering)); A: barnyard grass, weed kill grade (barnyard grass [3]; treatment dosage 320 g/ha): 5 (weed kill ratio 90% or more, (practically complete withering)); B (bulrush) weedkilling efficacy grade (bulrush [4]; treatment dosage 320 g/ha): 4 (weed kill ratio 70% or more, less than 90%); C: oval-leafed pondweed, weed kill grade (oval-leafed pondweed [5]; treatment dosage 320 g/ha): 4 (weed kill ratio 70% or more, less than 90%); A (barnyard grass) weedkilling efficacy grade (barnyard grass [6]; treatment dosage 320 g/ha): 3 (weed kill ratio 40% or more, less than 70%)
CC(C)(C(=O)Nc1cc(Oc2ccccc2)ccn1)N1COCN(c2ccccc2)C1=O [A-2-55] | – | – | – | – | – | – | – | C (oval-leafed pondweed) weedkilling efficacy grade (oval-leafed pondweed [1]; treatment dosage 234 g/ha): 5 (weed kill ratio 90% or more, (practically complete withering)); a: transplanted rice, effect on crop grade (transplanted rice; treatment dosage 234 g/ha): 0 (weed kill ratio 5% or less (practically no effect)); B: bulrush, weed kill grade (bulrush [2]; treatment dosage 234 g/ha): 5 (weed kill ratio 90% or more, (practically complete withering)); A: barnyard grass, weed kill grade (barnyard grass [3]; treatment dosage 234 g/ha): 5 (weed kill ratio 90% or more, (practically complete withering)); B (bulrush) weedkilling efficacy grade (bulrush [4]; treatment dosage 234 g/ha): 2 (weed kill ratio 20% or more, less than 40%); C: oval-leafed pondweed, weed kill grade (oval-leafed pondweed [5]; treatment dosage 234 g/ha): 5 (weed kill ratio 90% or more, (practically complete withering)); A (barnyard grass) weedkilling efficacy grade (barnyard grass [6]; treatment dosage 234 g/ha): 0 (weed kill ratio 5% or less (practically no effect))
Cc1cc(C)nc(NC(=O)C(C)(C)N2COCN(c3ccccc3)C2=O)c1 [A-2-56] | 3 (weed kill ratio 40% or more, less than 70%) | 0 (weed kill ratio 5% or less (practically no effect)) | 5 (weed kill ratio 90% or more, (practically complete withering)) | 5 (weed kill ratio 90% or more, (practically complete withering)) | 5 (weed kill ratio 90% or more, (practically complete withering)) | 5 (weed kill ratio 90% or more, (practically complete withering)) | 4 (weed kill ratio 70% or more, less than 90%) | –
